Reference: BindingDB's records for doi:10.1016/j.bmc.2007.10.061 (Osi Pharmaceuticals, 2008)

Legend:
[1] = biological target: Mitogen-activated protein kinase 1 (ERK2) (Homo sapiens) (UniProt P28482); experiment: Inhibition of MAPK2
[2] = biological target: 3-phosphoinositide-dependent protein kinase 1 (PDPK1) (Homo sapiens) (UniProt O15530); experiment: Inhibition of PDK1

Mitogen-activated protein kinase 1 (ERK2) (Homo sapiens), sequence (P28482 whole entry, looked up): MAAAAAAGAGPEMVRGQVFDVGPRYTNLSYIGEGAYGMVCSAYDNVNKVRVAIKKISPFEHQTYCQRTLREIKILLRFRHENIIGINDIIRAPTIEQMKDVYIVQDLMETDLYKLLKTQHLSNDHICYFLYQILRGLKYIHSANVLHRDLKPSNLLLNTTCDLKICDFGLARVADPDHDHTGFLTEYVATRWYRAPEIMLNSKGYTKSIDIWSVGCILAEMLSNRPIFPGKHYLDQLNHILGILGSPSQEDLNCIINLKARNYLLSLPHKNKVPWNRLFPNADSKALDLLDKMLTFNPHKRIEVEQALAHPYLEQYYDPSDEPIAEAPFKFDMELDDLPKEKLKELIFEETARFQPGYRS

IC50 [1]: > 10 µM | IC50 [2]: > 30 µM
Compound: Nc1nccn2c1c(-c1ccc3ccc(-c4ccccc4)nc3c1)nc2[C@H]1C[C@@H](CN2CCC2)C1 [cis-3-(3-(azetidin-1-ylmethyl)cyclobutyl)-1-(2-phenylquinolin-7-yl)imidazo[1,5-a]pyrazin-8-amine]
